These results are taken from patent publication US7365084B2, “Cycloalkyl-substituted amino acid derivatives, processes for their preparation and their use as pharmaceuticals” (SanoFi-Aventis Deutschland GmbH, priority 2003, dated 2008).

This assay has as its target T1, human PPARalpha receptor (GR-GAL4-humanPPARalpha-LBD fusion protein) (Homo sapiens, UniProt Q07869).
T1 construct: amino acids S167-Y468; expressed in transfected cells; host or cells: HEK (human embryo kidney) cells, stably transfected with pcDNA3 carrying the fusion construct
T1 sequence (Q07869 167-468): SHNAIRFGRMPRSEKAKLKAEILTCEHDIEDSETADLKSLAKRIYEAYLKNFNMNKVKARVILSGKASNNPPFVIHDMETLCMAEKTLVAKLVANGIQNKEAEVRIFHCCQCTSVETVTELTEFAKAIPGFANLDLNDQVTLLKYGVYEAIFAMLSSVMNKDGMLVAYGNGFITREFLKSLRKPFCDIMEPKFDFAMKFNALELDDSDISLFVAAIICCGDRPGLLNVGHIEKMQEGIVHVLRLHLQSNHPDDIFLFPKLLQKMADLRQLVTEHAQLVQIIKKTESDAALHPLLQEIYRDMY
Put plainly: Cellular PPARalpha assay (stably transfected HEK luciferase reporter cell line). It counts as cell-based. As to conditions: 24 h incubation. Here is the method:
(A) Determination of EC50 Values of PPAR Agonists in the Cellular PPARalpha Assay
The potency of substances which bind to human PPAR[…] and activate in an agonistic manner is analyzed using a stably transfected HEK cell line (HEK=human embryo kidney) which is referred to here as PPARalpha reporter cell line. It contains two genetic elements, a luciferase reporter element (pΔM-GAL4-Luc-Zeo) and a PPARalpha fusion protein (GR-GAL4-humanPPARα-LBD) which mediates expression of the luciferase reporter element depending on a PPARalpha ligand. The stably and constitutively expressed fusion protein GR-GAL4-humanPPARalpha-LBD binds in the cell nucleus of the PPARalpha reporter cell line via the GAL4 protein portion to the GAL4 DNA binding motifs 5′-upstream of the luciferase reporter element which is integrated in the genome of the cell line. There is only little expression of the luciferase reporter gene without addition of a PPARalpha ligand if fatty acid-depleted fetal calf serum (cs-FCS) is used in the assay. PPARα ligands bind and activate the PPARα fusion protein and thereby bring about expression of the luciferase reporter gene. The luciferase which is formed can be detected by means of chemi-luminescence via an appropriate substrate.
The PPARalpha reporter cell line was prepared in 2 stages. Firstly, the luciferase reporter element was constructed and stably transfected into HEK cells. For this purpose, five binding sites of the yeast transcription factor GAL4 (each 5′-CGGAGTACTGTCCTCCGAG-3′) (SEQ ID NO:1) were cloned in 5′-upstream of a 68 bp-long minimal MMTV promoter (Genbank Accession # V01175). The minimal MMTV promoter section contains a CCAAT box and a TATA element in order to enable efficient transcription by RNA polymerase II. The cloning and sequencing of the GAL4-MMTV construct took place in analogy to the description of Sambrook J. et. al. (Molecular cloning, Cold Spring Harbor Laboratory Press, 1989). Then the complete Photinus pyralis gene (Genbank Accession # M15077) was cloned in 3′-downstream of the GAL4-MMTV element. After sequencing, the luceriferase reporter element consisting of five GAL4 binding sites, MMTV promoter and luciferase gene was recloned into a plasmid which confers zeocin resistance in order to obtain the plasmid pΔM-GAL4-Luc-Zeo. This vector was transfected into HEK cells in accordance with the statements in Ausubel, F. M. et al. (Current protocols in molecular biology, Vol. 1-3, John Wiley & Sons, Inc., 1995). […] In a second step, the PPARalpha fusion protein (GR-GAL4-humanPPARalpha-LBD) was introduced into the stable cell clone described. For this purpose, initially the cDNA coding for the N-terminal 76 amino acids of the glucocorticoid receptor (Genbank Accession # P04150) was linked to the cDNA section coding for amino acids 1-147 of the yeast transcription factor GAL4 (Genbank Accession # P04386). The cDNA of the ligand-binding domain of the human PPARalpha receptor (amino acids S167-Y468; Genbank Accession # S74349) was cloned in at the 3′-end of this GR-GAL4 construct. The fusion construct prepared in this way (GR-GAL4-humanPPARalpha-LBD) was recloned into the plasmid pcDNA3 (from Invitrogen) in order to enable constitutive expression therein by the cytomegalovirus promoter. This plasmid was linearized with a restriction endonuclease and stably transfected into the previously described cell clone containing the luciferase reporter element. The finished PPARalpha reporter cell line which contains a luciferase reporter element and constitutively expresses the PPARalpha fusion protein (GR-GAL4-human PPARalpha-LBD) was isolated by selection with zeocin (0.5 mg/ml) and G418 (0.5 mg/ml).
The activity of PPARalpha agonists is determined in a 3-day assay which is described below: […]
(In general: In a reporter assay the amount or activity of a reporter protein is the signal.)
The molecule `Cc1ccc(-c2nc(COC3CCCC(C(=O)N[C@@H](C)C(=O)O)C3)c(C)o2)cc1` (stereo partly drawn) [Example 3, (S)-2-{[(1R,3S)/(1S,3R)-3-(5-Methyl-2-p-tolyloxazol-4-ylmethoxy)cyclohexanecarbonyl]amino}propionic acid] displayed an EC50 of 0.099 µM.
Take `CCc1oc(-c2ccc(C(F)(F)F)cc2)nc1COCC1CCCC(C(=O)N[C@H](C(=O)O)C(C)C)C1` (some centres unmarked) [Example 50]: the 50% effective concentration (EC50) was 0.0012 µM.
Under `CC(C)c1oc(-c2ccc(C(F)(F)F)cc2)nc1COCC1CCCC(C(=O)N[C@H](C(=O)O)C(C)C)C1` (some centres unmarked) [Example 43] stands 0.032 µM; under `Cc1ccc(-c2nc(COC3CCCC(C(=O)NC(C)(C)C(=O)O)C3)c(C)o2)cc1` (racemic) [Example 5, 2-Methyl-2-{[(1R,3S)/(1S, 3R)-3-(5-methyl-2-p-tolyloxazol-4-ylmethoxy)-cyclohexanecarbonyl]amino}propionic acid], 0.029 µM; under `Cc1ccc(-c2nc(COC3CCCC(C(=O)NC4(C(=O)O)CCCC4)C3)c(C)o2)cc1` (racemic) [Example 25, 1-{[(1R,3S)/(1S,3R)-3-(5-Methyl-2-p-tolyloxazol-4-ylmethoxy)cyclohexanecarbonyl]amino}cyclopentanecarboxylic acid], 0.0072 µM.
As to `Cc1oc(-c2cccc(C(F)(F)F)c2)nc1COC1CCCC(C(=O)N[C@H](C(=O)O)C(C)C)C1` (stereo partly drawn) [Example 11, (S)-3-Methyl-2-({(1R,3S)/(1S,3R)-3-[5-methyl-2-(3-trifluoromethylphenyl)-oxazol-4-ylmethoxy]cyclohexanecarbonyl}amino)butyric acid], the 50% effective concentration (EC50) turned out to be 0.015 µM. This EC50 lies about 2.1-fold higher than the previous one.
Under `CCc1oc(-c2ccc(C)cc2)nc1CO[C@H]1CCC[C@@H](C(=O)N[C@H](C(=O)O)C(C)C)C1` [Example 21a, (S)-3-methyl-2-{[(1R,3S)-3-(5-ethyl-2-p-tolyloxazol-4-ylmethoxy)cyclohexanecarbonyl]amino}butyric acid] stands 0.005 µM.
In turn, `Cc1oc(-c2cccc(C(F)(F)F)c2)nc1COCC1CCCC(C(=O)N[C@H](C(=O)O)C(C)C)C1` (some centres unmarked) [Example 44] yielded a half-maximal effective concentration (EC50) of 0.0045 µM.

Broadly, the EC50 is the concentration that produces a half-maximal response. Low values mean an effect from little substance, high ones a need for much substance.
